≈ marks a conversion by molar mass, not a printed value. Where two headings read alike, the source gives them in different places.
Key:
[1] = test system: HL-60; assay: Antiproliferative MTT assay, HL-60; assay type: cell-based, human; settings: for IC50: Homo sapiens, read-out: IC50 HL-60; for SI HL-60: SI = IC50 BALB/3T3 / IC50 HL-60
Source text: (§1) Four human cancer cell lines and one normal cell line were used to evaluate anticancer activity of SAL and its N-benzyl amides: human acute promyelocytic leukemia (HL-60) and its vincristine resistant subline (HL-60/vinc), human colon adenocarcinoma cell lines sensitive (LoVo) and resistant to doxorubicin (LoVo/dx) as well as also normal murine embryonic fibroblast cell line (BALB/3T3). The BALB/3T3 cell line was purchased from the American Type Culture Collection (ATCC Rockville, MD, USA), HL-60 cell line from European Type Culture Collection by courtesy of Professor Spik and Dr Mazurier (Laboratory of Biological Chemistry USTL, Lille, France) and HL-60/vinc, LoVo and LoVo/dx by courtesy of Prof. E. Borowski (Technical University of Gdańsk, Gdańsk, Poland). All the cell lines are maintained in the Institute of Immunology and Experimental Therapy (IIET), Wrocław, Poland.
(§2) Human leukemia cells were cultured in ISCOVE medium (IIET, Wroclaw, Polond) containing 10% fetal bovine serum and 2 mM L-glutamine (Sigma Aldrich) and 1 µg/100 mL […] for HL-60/vinc (Sigma Aldrich). Human colon adenocarcinoma cell lines were cultured in mixture of OptiMEM and RPMI 1640 (1:1) medium (IIET) supplemented with 5% fetal bovine serum (Thermo Fisher Scientific, Waltham, MA, USA), 2 mM L-glutamine, 1 mM sodium pyruvate (Sigma Aldrich) and 10 µg/100 mL doxorubicin for LoVo/dx (Sigma Aldrich). Murine embryonic fibroblast cells were cultured in Dulbecco medium (Gibco, Darmstadt, Germany) supplemented with 10% fetal bovine serum (Thermo Fisher Scientific) and 2 mM L-glutamine (Sigma Aldrich). All culture media contained antibiotics: 100 U/mL penicillin (Sigma Aldrich) and 100 µg/mL streptomycin (Polfa-Tarchomin, City, Poland). All cell lines were cultured during entire experiment in humid atmosphere at 37 °C and 5% CO2.
(§3) Twenty four hours before adding the tested compounds all cell lines were seeded in 96-well plates (Sarstedt, Nümbrecht, Germany) in appropriate media with 10^4 cells per well. All cell lines were exposed to each tested agent at four different concentrations from the range 100 to 0.1 µg/mL for 72 h. The cells were also exposed to the reference drugs: cisplatin (Accord, London, UK) and doxorubicin hydrochloride (Fluka, St. Louis, MO, USA). Additionally, all cell lines were exposed to DMSO (the solvent used for tested compounds, Sigma Aldrich) at the concentrations corresponding to those in the tested agent dilutions. For adherent cells sulphorodamine B assay was performed and MTT assay for leukemia cells.
(§4) Proliferation inhibition of leukemia cells by tested compounds was measured by means of MTT assay. Thus, 20 µL of 3-(4,5-dimethylthiazol-2-yl)-2,5-diphenyl tetrazolium bromide solution (Sigma Aldrich) were added to each well and plates were left in cell incubator for 4 h to allow the cells to metabolize yellow MTT to blue formazan. Then, the lysing mixture consisting of 225 mL dimethylformamide, 67.5 g sodium dodecyl sulfate (both from Sigma Aldrich) and 275 mL of distilled water was added in 80 µL volume per well. Plates were incubated for 24 h for the formazan crystals to be released from cells, dissolved and then absorbance of each well was read at Synergy H4 photometer (BioTek Instruments) at 570 nm wavelength.
(§5) Results are presented as mean IC50 (concentration of the tested compound that inhibits cell proliferation by 50%) ± standard deviation. IC50 values were calculated in Cheburator 1.0.2, Dmitry Nevozhay software for each experiment. Compounds at each concentration were tested in triplicates in single experiment and each experiment was repeated at least three times independently. The IR was defined as the ratio of IC50 for a given compound calculated for resistant cell line to that measured for its parental drug sensitive cell line (Table 4).

[2] = test system: LoVo/dx; assay: Antiproliferative SRB assay, LoVo/dx; assay type: cell-based, human; settings: for IC50: Homo sapiens, LoVo/DX, 72 h, read-out: IC50 LoVo/dx; for IR LoVo/DX: IR = IC50 LoVo/dx / IC50 LoVo; for SI LoVo/DX: SI = IC50 BALB/3T3 / IC50 LoVo/dx
Source text: as §1, §2, §3
(§6) After 72 h of incubation with tested compounds the cells were fixed in situ by gently adding of 50 µL per well of cold 50% trichloroacetic acid TCA (Avantor Performance Materials, City, Poland) and were incubated at 4 °C for 1 h. Then the wells were washed four times with water and air-dried. Next, 50 µL of 0.2% solution of sulphorodamine B (Sigma Aldrich) in 1% acetic acid (Avantor Performance Materials) were added to each well and plates were incubated at room temperature for 0.5 h. After incubation time, unbound dye was removed by washing plates four times with 1% acetic acid, whereas the stain bound to cells was solubilized with 150 µL of 10 mM Tris base (Sigma Aldrich). Absorbance of each solution was read at Synergy H4 photometer (BioTek Instruments, Winooski, VT, USA) at 540 nm wavelength.
as §5

[3] = test system: M. tuberculosis standard H37Rv strain; assay: Tuberculostatic activity, test-tube dilution; assay type: cell-based; settings: Mycobacterium tuberculosis, read-out: MIC M. tuberculosis Standard H37Rv Strain
[4] = test system: M. tuberculosis isoniazid-sensitive strain (spec. 192); assay: Tuberculostatic activity, test-tube dilution; assay type: cell-based; settings: Mycobacterium tuberculosis, read-out: MIC M. tuberculosis Isoniazid-Sensitive Strain
[5] = test system: LoVo; assay: Antiproliferative SRB assay, LoVo; assay type: cell-based, human; settings: for IC50: Homo sapiens, LoVo, 72 h, read-out: IC50 LoVo; for SI LoVo: SI = IC50 BALB/3T3 / IC50 LoVo
Source text: as §1, §2, §3, §6, §5

[6] = test system: HL-60/vinc; assay: Antiproliferative MTT assay, HL-60/vinc; assay type: cell-based, human; settings: for IC50: Homo sapiens, HL60/vinc, 72 h, read-out: IC50 HL-60/vinc; for IR HL-60/vinc: IR = IC50 HL-60/vinc / IC50 HL-60; for SI HL-60/vinc: SI = IC50 BALB/3T3 / IC50 HL-60/vinc
Source text: as §1, §2, §3, §4, §5

[7] = test system: standard and "wild" strains of M. tuberculosis; assay: Tuberculostatic activity, all M. tuberculosis strains (overall); assay type: cell-based; settings: Mycobacterium tuberculosis, H37RV, read-out: MIC (over M. tuberculosis strains)
[8] = HL-60, 72 h, MTT, mean ± SD, NA: not active in concentrations used (up to 100 µg/mL)

SMILES	IC50 [1, 8] [µM]	SI HL-60 [1]	IC50 [2] [µM]	IR LoVo/DX [2]	SI LoVo/DX [2]	MIC [3] [µg/mL]	MIC [4] [µg/mL]	IC50 ([5]; SRB, mean ± SD) [µM]	SI LoVo [5]	IC50 [6] [µM]	IR HL-60/vinc [6]	SI HL-60/vinc [6]	IC50 ([1]; HL-60, 72 h) [µM]	IC50 [5] [µM]	MIC [7] [µg/mL]	MIC ([3]; Youmans' medium, 37 °C, tested 3.1-100 µg/mL) [µg/mL]	MIC ([4]; wild strain spec. 192, Youmans' medium, 37 °C, tested 3.1-100 µg/mL) [µg/mL]
CC[C@H](C(=O)NCc1ccc(Br)cc1)C1CC[C@H](C)C([C@@H](C)[C@H](O)[C@H](C)C(=O)[C@H](CC)C2O[C@]3(C=C[C@@H](O)C4(CC[C@@](C)(C5CC[C@](O)(CC)[C@H](C)O5)O4)O3)[C@H](C)C[C@@H]2C)O1 (stereo partly shown) [Br-p]	20.7 ± 4.66	0.41	4.97 ± 2.76	0.30	1.69	50 (≈ 54.4 µM)	50 (≈ 54.4 µM)	16.3 ± 0.96	0.52	33.5 ± 10.9	1.62	0.25					
CC[C@H](C(=O)NCc1ccc(Cl)cc1)C1CC[C@H](C)C([C@@H](C)[C@H](O)[C@H](C)C(=O)[C@H](CC)C2O[C@]3(C=C[C@@H](O)C4(CC[C@@](C)(C5CC[C@](O)(CC)[C@H](C)O5)O4)O3)[C@H](C)C[C@@H]2C)O1 (stereo partly shown) [Cl-p, p-chlorobenzyl amide of salinomycin]	36.2 ± 3.03	0.21	16.6 ± 4.81	0.86	0.46	100 (≈ 114 µM)	100 (≈ 114 µM)	19.3 ± 4.03	0.40	46.8 ± 12.5	1.29	0.16					
CC[C@H](C(=O)NCc1cccc([N+](=O)[O-])c1)C1CC[C@H](C)C([C@@H](C)[C@H](O)[C@H](C)C(=O)[C@H](CC)C2O[C@]3(C=C[C@@H](O)C4(CC[C@@](C)(C5CC[C@](O)(CC)[C@H](C)O5)O4)O3)[C@H](C)C[C@@H]2C)O1 (stereo partly shown) [NO2-m]	8.78 ± 1.73	2.84	3.26 ± 0.84	0.20	7.64	100 (≈ 113 µM)	100 (≈ 113 µM)	16.1 ± 1.61	1.54	24.6 ± 8	2.80	1.01					
CCC(C(=O)NCc1cccc(F)c1)C1CCC(C)C(C(C)C(O)C(C)C(=O)C(CC)C2OC3(C=CC(O)C4(CCC(C)(C5CCC(O)(CC)C(C)O5)O4)O3)C(C)CC2C)O1 (stereo not shown) [F-m]		0.10	3.91 ± 2.1	0.29	1.65	100 (≈ 117 µM)	> 100		0.48				65 ± 35.3	13.5 ± 0.28			
CC[C@H](C(=O)NCc1cccc(Cl)c1)C1CC[C@H](C)C([C@@H](C)[C@H](O)[C@H](C)C(=O)[C@H](CC)C2O[C@]3(C=C[C@@H](O)C4(CC[C@@](C)(C5CC[C@](O)(CC)[C@H](C)O5)O4)O3)[C@H](C)C[C@@H]2C)O1 (stereo partly shown) [Cl-m]	3.83 ± 0.09	4.52	2.96 ± 0.99	0.25	5.86	100 (≈ 114 µM)	> 100	11.6 ± 5.12	1.49	6.59 ± 1.22	1.72	2.63					
CC[C@H](C(=O)NCc1cccc(Br)c1)C1CC[C@H](C)C([C@@H](C)[C@H](O)[C@H](C)C(=O)[C@H](CC)C2O[C@]3(C=C[C@@H](O)C4(CC[C@@](C)(C5CC[C@](O)(CC)[C@H](C)O5)O4)O3)[C@H](C)C[C@@H]2C)O1 (stereo partly shown) [Br-m]	3.38 ± 1.09	2.74	3.39 ± 0.15	0.65	2.73	> 100	> 100	5.23 ± 0.22	1.77	7.08 ± 1.73	2.09	1.31			> 100		
NNC(=O)c1ccncc1 [Isoniazid, isoniazid, reference compound]															3.1 to 6.25 (≈ 22.6 to 45.6 µM)	< 3.1	< 3.1

From paper PMC6271077, “Synthesis, Anticancer and Antibacterial Activity of Salinomycin N-Benzyl Amides” (Molecules, 2014)
